Assay results from patent publication US20240216513A1, “FATTY ACID-BIFUNCTIONAL DEGRADER CONJUGATES AND THEIR METHODS OF USE” (Novartis AG, priority 2021, published 2024).

How the values were obtained:
[1] = test system: TMD8 tumors; test: Efficacy in ectopic (subcutaneous) TMD8 tumor-bearing SCID/BEIGE mice, tumor volume; format: in vivo, mouse; conditions: 20 mgL/kg (unconjugated V)
Description: All animal experiments were performed according to procedures covered by permit number BS-1974, BS-1975 and BS-2904 issued by the Kantonales Veterinäramt Basel-Stadt and strictly adhered to the Eidgenössisches Tierschutzgesetz and the Eidgenössische Tierschutzverordnung. Female Sprague Dawley rat were obtained from Charles Rivers (Germany), female Balb/c mice from Charles Rivers (Italy) and female SCID/BEIGE (C.B-Igh-1b/GbmsTac-Prkdcscid-Lystbg N7) mice from Taconic. All the animals were housed in a pathogen-controlled environment with access to food and water ad libitum and they were identified with transponders.
Subcutaneous TMD8 tumors were induced by injecting tumor cells expanded in vitro in the right flank of SCID/BEIGE mice. As soon as the injection was finished, antagonization (naloxone, flumazenil and atipamezole injected s.c.) was injected and mice are put on a warming pad for recovery and carefully checked during that time.
For PK experiments, non-tumor bearing mice or rats were treated once (10 mL/kg) with a compound either i.v. or s.c. Serial blood samplings from the tail vein (5-20 μl) were collected during the course of the experiment. For PK/PD experiments in tumor-bearing mice, compound was administered once (10 mL/kg) either i.v. or s.c. Animals were randomized into groups of n=3 and tissue samples were collected at several time points. At the times indicated, animals were anaesthetized by exposure to 2-3% v/v isoflurane in medical oxygen. They were sacrificed without recovering from anesthetic after blood sampling into commercially prepared EDTA coated tubes (Milian, cat #TOM-14C) in order to extract plasma. The tissues were excised, weighted and rapidly frozen in liquid nitrogen. Later, tumors were cryogenic dry pulverized with the CryoPrep™ system (model CP-02, Covaris). For efficacy experiments in ectopic tumor-bearing mice, animals were randomized into groups of n=6 for a mean tumor size of 100 mm^3 and compound was administered either i.v. q3w or s.c. q2w. When implanted in brain, animals were randomized into groups of n=4 for a mean bioluminescence of 1.0-2.0E+06 [p/s]/[ρW/cm^2] and compound was administered i.v. qw. Tumor response were reported with the measures of tumor volumes or bioluminescence from the treatment start. Concentrations of compound in blood and tissues were determined simultaneously by UPLC/MS-MS. BTK and IL-10 levels in tumor were determined by Meso Scale Discovery (MSD).

[2] = BTK FAC plasma stability assay, PBS buffer arm; format: physicochemical; conditions: incubation to 24 h
Summary of the method: (§1)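 Compound from a 500 µM acetonitrile:water working solution was spiked into K3-EDTA plasma or Dulbecco's PBS and incubated with shaking at 38 °C. Samples taken at 0, 2, 6 and 24 h were precipitated with cold acetonitrile containing glyburide internal standard. Semi-quantitative LC-MS/MS used analyte:internal standard peak area ratios.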

[3] = target: T1, BTK C481S (Homo sapiens, UniProt Q06187, C481S); test: PD screen in TMD8 BTK C481S mutant tumor-bearing mice, BTK levels and compound concentrations in blood and tumor; format: in vivo, mouse; conditions: 20 mgL/kg (unconjugated V)
T1 construct: endogenous in cells; host or cells: TMD8 BTK C481S mutant tumour xenografts in mice
Summary of the method: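 Single compound injection in mice bearing TMD8 BTK C481S tumors, groups of 2, with blood and tumor sampled at day 0, 4, 7 and sometimes 10. Compound levels measured by UPLC/MS-MS and BTK levels by Meso Scale Discovery.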

[4] = BTK FAC plasma stability assay, rat plasma; format: in vitro ADME; conditions: incubation to 24 h
Summary of the method: as §1

[5] = BTK FAC plasma stability assay, dog plasma; format: in vitro ADME

T1 sequence (Q06187 whole entry C481S): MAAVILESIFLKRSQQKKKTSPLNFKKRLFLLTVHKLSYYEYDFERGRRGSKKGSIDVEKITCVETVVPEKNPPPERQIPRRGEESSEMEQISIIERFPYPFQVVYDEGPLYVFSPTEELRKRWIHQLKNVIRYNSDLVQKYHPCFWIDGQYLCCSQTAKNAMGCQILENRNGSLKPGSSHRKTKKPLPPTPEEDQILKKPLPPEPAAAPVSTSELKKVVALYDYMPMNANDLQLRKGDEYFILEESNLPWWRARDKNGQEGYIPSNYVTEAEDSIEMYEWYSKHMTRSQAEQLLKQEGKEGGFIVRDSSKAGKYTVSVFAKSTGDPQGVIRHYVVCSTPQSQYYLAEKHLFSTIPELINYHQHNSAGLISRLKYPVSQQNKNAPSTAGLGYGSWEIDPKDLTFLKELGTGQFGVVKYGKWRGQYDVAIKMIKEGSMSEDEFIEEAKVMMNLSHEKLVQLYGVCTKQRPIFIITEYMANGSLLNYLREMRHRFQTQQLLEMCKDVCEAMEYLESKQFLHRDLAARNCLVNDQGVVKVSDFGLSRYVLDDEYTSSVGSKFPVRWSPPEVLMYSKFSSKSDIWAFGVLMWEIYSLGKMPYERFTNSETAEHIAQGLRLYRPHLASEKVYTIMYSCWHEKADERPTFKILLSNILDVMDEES

COc1ccc(C(=O)N2CCC3(CCN(CCc4ccc(-c5cc6c(-c7cc(F)cc(NC(=O)c8ccc(C(C)(C)O)cc8F)c7C)ncnc6[nH]5)cc4)CC3)CC2)cc1N1CCC(=O)NC1=O [Compound V, N-(3-(6-(4-(2-(9-(3-(2,4-Dioxotetrahydropyrimidin-1(2H)-yl)-4-methoxybenzoyl)-3,9-diazaspiro[5.5]undecan-3-yl)ethyl)phenyl)-7H-pyrrolo[2,3-d]pyrimidin-4-yl)-5-fluoro-2-methylphenyl)-2-fluoro-4-(2-hydroxypropan-2-yl)benzamide]
Dosing frequency to achieve sustained 90% regression ([1]; i.v.): 2qw (85%) | Dosing frequency to achieve sustained 90% regression ([1]; s.c.): Not tolerated | Plasma stability (h) PBS [2]: >48 h | Duration of BTK degradation in mouse ≥90% ([3]; i.v.): <4 days | Duration of BTK degradation in mouse ≥90% (days) ([3]; s.c.): Not tolerated | Plasma stability (h) rat [4]: 39.3 h | Plasma stability (h) dog [5]: >48 h
